# Test results from patent publication US7674810B2, “1,1-dioxo-1H-1Λ6-benzo[d]isothiazol-3-yl)-4-hydroxy-1,5-dihydro-pyrrol-2-one inhibitors of HCV polymerase” (Roche Palo Alto LLC, priority 2006, dated 2010).
row,Compound,melting point
1,Cc1cccc(-c2cccc3c2S(=O)(=O)N=C3c2nc(Cc3ccc(F)cc3)c3ccccc3c2O)c1,228 to 230 °C
2,O=S1(=O)N=C(c2nc(Cc3ccc(F)cc3)c3ccccc3c2O)c2cccc(-c3cccc(F)c3)c21,> 275 °C
3,CS(=O)(=O)Nc1cccc2c1S(=O)(=O)N=C2c1nc(Cc2ccc(F)cc2)c2ccccc2c1O,> 275 °C
4,CS(=O)(=O)Nc1ccc2c(c1)S(=O)(=O)N=C2c1nc(Cc2ccc(F)cc2)c2ccccc2c1O,> 275 °C
5,O=S1(=O)N=C(c2nc(Cc3ccc(F)cc3)c3ccc(F)cc3c2O)c2ccccc21,> 275 °C
6,O=C1C(C2=NS(=O)(=O)c3ccccc32)=C(O)[C@H](C2CCCCC2)N1Cc1ccccc1,104 to 106 °C
7,Cc1cc(CN2C(=O)C(C3=NS(=O)(=O)c4c(CNS(=O)(=O)N5CCC(N)C5)cccc43)=C(O)[C@@H]2C(C)(C)C)ccc1F.O=C(O)C(F)(F)F (stereo partly shown),128 to 134 °C
8,CC(=O)NC1CCN(S(=O)(=O)NCc2cccc3c2S(=O)(=O)N=C3C2=C(O)[C@H](C(C)(C)C)N(Cc3ccc(F)c(C)c3)C2=O)C1 (stereo partly shown),239 to 259 °C
9,Cc1cc(CN2C(=O)C(C3=NS(=O)(=O)c4c(CNS(=O)(=O)N5CCC(S(C)(=O)=O)C5)cccc43)=C(O)[C@@H]2C(C)(C)C)ccc1F (stereo partly shown),124 to 137 °C
10,CC(C)(C)[C@H]1C(O)=C(C2=NS(=O)(=O)c3c(CNS(=O)(=O)c4cccs4)cccc32)C(=O)N1Cc1ccc(F)cc1,175 to 192 °C
11,Cc1nc(S(=O)(=O)NCc2cccc3c2S(=O)(=O)N=C3C2=C(O)[C@H](C(C)(C)C)N(Cc3ccc(F)cc3)C2=O)cn1C.O=C(O)C(F)(F)F,110 to 116 °C
12,CC(C)(C)[C@H]1C(O)=C(C2=NS(=O)(=O)c3ccccc32)C(=O)N1CC1CCC1,69 to 78 °C
13,CC(C)(C)[C@H]1C(O)=C(C2=NS(=O)(=O)c3c2cccc3-c2ccc(=O)[nH]c2)C(=O)N1Cc1ccc(F)cc1,> 275 °C
14,COc1ncc(-c2cccc3c2S(=O)(=O)N=C3C2=C(O)[C@H](C(C)(C)C)N(Cc3ccc(F)cc3)C2=O)cn1,> 250 °C
15,CN(C)S(=O)(=O)NCc1cccc2c1S(=O)(=O)N=C2C1=C(O)[C@H](C(C)(C)C)N(Cc2ccc(F)cc2)C1=O,102 to 115 °C
16,CC(C)(C)[C@H]1C(O)=C(C2=NS(=O)(=O)c3c2cccc3-c2cnc(=O)[nH]c2)C(=O)N1Cc1ccc(F)cc1,> 260 °C

row,Compound,melting point
1,CNC(=O)CN(Cc1cccc2c1S(=O)(=O)N=C2C1=C(O)[C@H](C(C)(C)C)N(Cc2ccc(F)cc2)C1=O)C(C)=O,150 to 154 °C
2,COc1cc(CN2C(=O)C(C3=NS(=O)(=O)c4c(CNS(C)(=O)=O)cccc43)=C(O)[C@@H]2C(C)(C)C)ccc1F,121 to 126 °C
3,CNC(=O)CNCc1cccc2c1S(=O)(=O)N=C2C1=C(O)[C@H](C(C)(C)C)N(Cc2ccc(F)cc2)C1=O,175 to 180 °C
4,CN(C)C(=O)COc1cccc2c1S(=O)(=O)N=C2C1=C(O)[C@H](C(C)(C)C)N(Cc2ccc(F)cc2)C1=O,137 °C
5,CC(C)(C)[C@H]1C(O)=C(C2=NS(=O)(=O)c3ccccc32)C(=O)N1CCC1CC1,135 to 140 °C
6,CCOC(=O)CNc1cccc2c1S(=O)(=O)N=C2C1=C(O)[C@H](C(C)(C)C)N(Cc2ccc(F)cc2)C1=O,148 to 152 °C
7,CC(C)(C)[C@H]1C(O)=C(C2=NS(=O)(=O)c3c(CNS(=O)(=O)N4CC[C@H](O)C4)cccc32)C(=O)N1Cc1ccc(F)cc1,> 250 °C
8,CC(C)(C)[C@H]1C(O)=C(C2=NS(=O)(=O)c3c(CNS(C)(=O)=O)cccc32)C(=O)N1CCC1CCCC1,74 to 86 °C
9,CC(C)(C)[C@H]1C(O)=C(C2=NS(=O)(=O)c3c(CNS(=O)(=O)c4ccccc4)cccc32)C(=O)N1Cc1ccc(F)cc1,96 to 112 °C
10,CN(C)S(=O)(=O)Oc1cccc2c1S(=O)(=O)N=C2C1=C(O)[C@H](C(C)(C)C)N(Cc2ccc(F)cc2)C1=O,116 to 126 °C
11,CNS(=O)(=O)COc1cccc2c1S(=O)(=O)N=C2C1=C(O)[C@H](C(C)(C)C)N(Cc2ccc(F)cc2)C1=O,155 to 165 °C
12,CC(C)(C)[C@H]1C(O)=C(C2=NS(=O)(=O)c3c(CNS(=O)(=O)N4CCOCC4)cccc32)C(=O)N1Cc1ccc(F)cc1,118 to 129 °C
13,CCC(=O)N(Cc1cccc2c1S(=O)(=O)N=C2C1=C(O)[C@H](C(C)(C)C)N(Cc2ccc(F)c(C)c2)C1=O)S(C)(=O)=O,98 to 99.8 °C
14,Cc1cc(CN2C(=O)C(C3=NS(=O)(=O)c4c(CNS(=O)(=O)N5CCNCC5)cccc43)=C(O)[C@@H]2C(C)(C)C)ccc1F.O=C(O)C(F)(F)F,135 to 151 °C
15,CN(Cc1cccc2c1S(=O)(=O)N=C2C1=C(O)[C@H](C(C)(C)C)N(Cc2ccc(F)cc2)C1=O)S(=O)(=O)N1CCNCC1.O=C(O)C(F)(F)F,113 to 128 °C

# More lines, now with the values ahead:
row,melting point,Compound
1,92 to 104 °C,COc1cc(CN2C(=O)C(C3=NS(=O)(=O)c4ccccc43)=C(O)[C@@H]2C(C)(C)C)ccc1F
2,200 °C (dec.),CC(C)CC1C(O)=C(C2=NS(=O)(=O)c3ccccc32)C(=O)N1Cc1ccc(F)cc1 (stereo not shown)
3,200 °C (dec.),CC(C)C[C@@H]1C(O)=C(C2=NS(=O)(=O)c3ccccc32)C(=O)N1Cc1ccc(F)cc1
4,114 to 119 °C,CC(C)(C)[C@H]1C(O)=C(C2=NS(=O)(=O)c3ccccc32)C(=O)N1Cc1ccc(F)c(Br)c1
5,80 to 89 °C,CC(C)(C)[C@H]1C(O)=C(C2=NS(=O)(=O)c3ccccc32)C(=O)N1Cc1ccc(F)c(F)c1
6,85 to 91 °C,CC(C)(C)[C@H]1C(O)=C(C2=NS(=O)(=O)c3ccccc32)C(=O)N1Cc1ccc(F)c(C(F)(F)F)c1
7,145 to 155 °C,O=C1C(C2=NS(=O)(=O)c3ccccc32)=C(O)[C@H](c2ccccc2)N1Cc1ccc(F)cc1
8,> 220 °C,CC(C)(C)C1C(O)=C(C2=NS(=O)(=O)c3ccccc32)C(=O)N1Cc1ccc(F)cc1 (stereo not shown)
9,71 to 85 °C,CC(C)(C)[C@H]1C(O)=C(C2=NS(=O)(=O)c3ccccc32)C(=O)N1Cc1ccc(F)c(C2CC2)c1
10,179 to 213 °C,CC(C)(C)C1C(O)=C(C2=NS(=O)(=O)c3c(Cl)cccc32)C(=O)N1Cc1ccc(F)cc1 (stereo not shown)
11,> 250 °C,CC(C)(C)C1C(O)=C(C2=NS(=O)(=O)c3c(OCC(N)=O)cccc32)C(=O)N1Cc1ccc(F)cc1 (stereo not shown)
12,> 250 °C,CC(C)(C)[C@H]1C(O)=C(C2=NS(=O)(=O)c3c2cccc3-c2cn[nH]c2)C(=O)N1Cc1ccc(F)cc1
13,224 to 235 °C,COc1cccc2c1S(=O)(=O)N=C2C1=C(O)[C@H](C(C)(C)C)N(Cc2ccc(F)cc2)C1=O
14,118 to 124 °C,CC(C)(C)[C@H]1C(O)=C(C2=NS(=O)(=O)c3c(CNCC(N)=O)cccc32)C(=O)N1Cc1ccc(F)cc1
15,95 to 110 °C,CC(C)[C@H]1C(O)=C(C2=NS(=O)(=O)c3ccccc32)C(=O)N1Cc1ccc(F)cc1
16,127 to 135 °C,CC(C)(C)[C@H]1C(O)=C(C2=NS(=O)(=O)c3c(CCS(C)(=O)=O)cccc32)C(=O)N1Cc1ccc(F)cc1
17,> 250 °C,Cc1cccc2c1S(=O)(=O)N=C2C1=C(O)[C@H](C(C)(C)C)N(Cc2ccc(F)cc2)C1=O
18,99 to 106 °C,CC(C)COc1cccc2c1S(=O)(=O)N=C2C1=C(O)[C@H](C(C)(C)C)N(Cc2ccc(F)cc2)C1=O
